Entries after “also recorded” stand apart in the source; their conditions may differ. One block for each molecule: values may come before it. No end group written: not given here. spin label = not defined here
Tests used:
Httex1 aggregates [1] = test: Labeling of Httex1 aggregates in retinal sections of Huntington mouse models
Source text: FIG. 28 presents fluorescence microscopy pictures showing that HD8-Alexa488 labels aggregated Httex1 in retina sections from two different mouse model of Huntington disease. Left panels show nuclear stain that labels all cells. Right panels show signal from HD8-Alexa488. Top panels show a retinal section from a R6/1 mouse, and bottom panels show a retinal section from a zQ175KI mouse.
Left panels show nuclear stain that labels all cells (A1 and B1), and right panels show signal from HD8-SP10-HD1-fluorescein (A2 and B2). Top panels are higher magnification that show the ganglion cell layer of the retina, and the bottom panels are lower magnification micrographs that show all retinal layers. Labeling of all retinal layers is seen when the HD peptides are dimerized. The phase contrast panel to the left of the bottom panels show the corresponding retinal layers: ONL: outer nuclear layer that contain rod and cone photoreceptor cells, INL: inner nuclear layer that contains cell bodies from horizontal cells, bipolar cells, amacrine cells and Müller cells, GCL: ganglion cell layer.
To see whether HD peptides bind Httex1 aggregates formed in vivo, we used tissues from two different Huntington mouse models, R6/1 (34 weeks old) and zQ175KI (48 weeks). FIG. 28 show retinal sections from these mice incubated with 2 micromolar of HD8 conjugated with Alexa488 at its carboxyl terminus.
HD8-HD1-fluorescein (0.1 micromolar) was also used on retinal sections from 34-week-old R6/1 mice (FIG. 29). […] In addition, weaker signal from intranuclear aggregates was also observed. Further, the signal can now be detected in all layers of the retina where the nuclei reside.

Httex1 aggregates [2] = test: Labeling of Httex1 aggregates in brain sections of R6/1 mice; design: species or system mouse; settings: R6/1 mice (34 weeks) versus age-matched control
Source text: Brain sections from age-matched littermate control and R6/1 mouse are shown in this figure.
HD8-HD1-fluorescein was also used on brain sections from R6/1 mice (34 weeks).

Httex1Q72 aggregates = molecular target: T1, Httex1Q72 aggregates (Homo sapiens, UniProt P42858, INS38QQQQQQQQQQQQQQQQQQQQQQQQQQQQQQQQQQQQQQQQQQQQQQQQQQQ); test: Labeling of Httex1Q72 aggregates in fixed transfected HEK293 cells; type: cell-based; settings: fixed cells 24 h after transfection, 0.1 micromolar peptide overnight
T1 construct: Httex1Q72 (without RFP) was transfected into HEK293 cells; expressed in transfected cells
T1 sequence (P42858 with tags, fused parts or gaps limits assumed, stated change not applied): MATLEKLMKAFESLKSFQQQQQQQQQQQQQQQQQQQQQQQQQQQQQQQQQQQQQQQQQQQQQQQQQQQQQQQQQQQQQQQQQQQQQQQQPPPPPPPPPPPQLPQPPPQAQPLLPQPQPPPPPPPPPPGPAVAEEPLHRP
Source text: Left panels show fluorescent images (top left panel: nuclear stain to visualize all cells; middle left panel: fluorescein signal arising from the HD8-SP10-HD1-fluorescein peptide; bottom left panel: antibody against fluorescein to further amplify fluorescein signal). Right panels show phase contrast image of the same field. Arrows point to cytoplasmic aggregates that could be visualized with fluorescent signals or under phase contrast. Asterisks mark intranuclear aggregates that were labeled with HD8-SP10-HD1-fluorescein but not anti-fluorescein antibody.
Next, we tested the ability of HD peptides to bind Httex1 aggregates formed in cultured cells. To do this, Httex1Q72 (without RFP) was transfected into HEK293 cells. […] The antibody labeled the rim of the cytoplasmic aggregates and the signal also surrounded some cell nuclei. Little antibody staining was observed on intranuclear aggregates.

Htt-fibrils [3] = test: EPR of spin-labeled peptide binding to Htt-fibrils; settings: spin-labeled synthetic peptide
Experimental: FIG. 10 presents graphs showing testing binding of chemically synthesized HD1 or HD8 using Electron Paramagnetic Resonance (EPR). […] Panel B is a graph showing the results of experiments aimed at the determination of the stoichiometry of peptides binding to Httex1 molecules in the fibril, in which a spin-labeled peptide (HD1 or HD8) is added to 15 μM fibrils.
HD1 and HD8 binding was analyzed by electron paramagnetic resonance (EPR). The synthetic peptides were spin labeled using a free Cys at the C-terminus of the peptides. […] The stoichiometry of the complex was also studied using EPR, with varying amounts of peptide added to fibrils (FIG. 10, panel B).

[4] = Radioactive binding assay, beads without target (no target control); settings: radiolabeled peptide
Experimental: (§1) The binding of the peptide library was determined using a radioactive binding assay. In this assay, peptides were radiolabeled by translating the mRNA coding for these peptides in the presence of ^35S-methionine using rabbit reticulocyte lysate (Jackson, et al. (1983) Methods Enzymol 96: 50-74). These peptides were translated in an mRNA display format and were thus linked to their encoding mRNA, as described above. After purification by dT chromatography, the radiolabeled peptides were incubated with Huntingtin fibrils immobilized on Neutravidin Agarose or Streptavidin Ultralink beads. The beads were then filtered through a Spin X column (Corning) to separate the supernatant and beads, then washed to remove unbound sequences. The supernatant, washes, and beads were all counted in a scintillation counter to determine the counts in each sample. The percent bound was determined by dividing the counts on the beads with the total counts (beads+washes+supernatant).

[5] = test system: unbundled Huntingtin fibrils (exon 1); test: Radioactive binding assay, immobilized unbundled Huntingtin fibrils; settings: for binding to Htt-fibrils: radiolabeled mRNA-peptide fusions, fibrils immobilized on beads
Source text: Messenger RNA (mRNA) display (described in (Roberts, et al. (1997) Proc Natl Acad Sci USA 94: 12297-302, Takahashi, et al. (2003) Trends Biochem Sci 28: 159-65); FIG. 2) was used to engineer peptide agents that bind to unbundled fibrils of Huntingtin exon 1. To do this, unbundled Huntingtin fibrils were generated by mixing biotinylated Huntingtin protein (exon 1; FIG. 1) with non-biotinylated exon 1 Huntingtin protein at a ratio of 1:20 (˜5% biotinylated Huntingtin). These fibrils were then immobilized on Neutravidin agarose (Thermo Fisher) or Streptavidin ultralink beads (Thermo Fisher) via the attached biotin. A MX9 (where X is any of the 20 natural amino acids) mRNA display library was generated using published procedures (Takahashi, et al. (2009) Methods Mol Biol 535: 293-314) and incubated with immobilized fibrils. Non-binding sequences were washed away and the remaining fibril binding peptides were amplified via RT-PCR. This process was repeated seven times.
as §1

α-Synuclein fibrils = α-Synuclein fibrils (Homo sapiens, UniProt P37840); test: Radioactive binding assay, α-Synuclein fibrils; settings: radiolabeled peptide
Experimental: as §1
(§2) HD1 and HD8 were also tested for binding specificity. Radiolabeled HD1 and HD8 were incubated with monomeric Huntingtin, unbundled Htt-fibrils, or α-Synuclein fibrils (α-Synuclein is another protein known to aggregate and form fibrils).

Htt-fibrils [6] = test: Competition binding of synthetic peptide against radiolabeled peptide on immobilized fibrils; settings: competitor = synthetic peptide in DMSO, 3.2 Fibril; for binding of radiolabeled HD8 to Htt-fibrils on addition of synthetic peptide: not to the same extent as with radiolabeled HD1
Experimental: Radiolabeled HD1 or HD8 were bound to immobilized fibrils and the appropriate compound was tested in a competition binding assay. From left to right and for each dataset shown on the graph (i.e., “HD1” and “HD8”), the bars represent “No Target+DMSO”, “No Target+HD1”, “No Target+HD8”, “3.2 Fibril+DMSO”, “3.2 Fibril+HD1”, and “3.2 Fibril+HD8”.
HD1 and HD8 were chemically synthesized and purified by reverse-phase HPLC and resuspended in DMSO. In order to verify that these synthetic peptides were functional for binding, we designed a competition experiment. We radiolabeled HD1 and HD8 above then tested to see if synthetic HD1 or HD8 would compete and reduce binding of the radiolabeled peptides. […] Binding to Htt-fibrils (3.2 Fibril+DMSO) was reduced by the addition of synthetic HD1 (3.2 Fibril+HD1) or by addition of synthetic HD8 (3.2 Fibril+HD8).

Huntingtin protein = test: In vitro Huntingtin aggregation assay imaged by electron microscopy; type: biochemical; settings: synthetic peptide, 6 days
Experimental: Synthetic HD1 and HD8 were also tested for their ability to inhibit fibril formation in an in vitro Huntingtin aggregation assay. In this assay, Huntingtin protein aggregated over a period of 6 days, forming fibrils that could be imaged using electron microscopy (FIG. 8; Controls).

Huntingtin Exon 1 Q39 = molecular target: T2, Huntingtin Exon 1 Q39 (Homo sapiens, UniProt P42858, DUP21-38); test: Co-localization of Alexa 488-labeled peptide with Httex1 Q39-RFP in fixed N2A cells; type: cell-based, mouse; settings: fixed N2A cells transfected with Httex1 Q39-RFP
T2 construct: expressing Huntingtin Exon 1 Q39 (mutant Huntingtin with 39 CAG repeats) fused to red fluorescent protein (tagRFP); expressed in transfected cells; host or cells: N2A (mouse neuroblastoma cell line)
T2 sequence (P42858 with tags, fused parts or gaps DUP21-38): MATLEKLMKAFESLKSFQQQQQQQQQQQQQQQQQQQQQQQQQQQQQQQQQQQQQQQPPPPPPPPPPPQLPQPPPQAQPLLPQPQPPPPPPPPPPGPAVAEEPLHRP
Experimental: In these experiments, N2A cells (mouse neuroblastoma cell line) were transfected with Httex1 Q39 fused with RFP (middle column). Cells were fixed and stained for HD 1 or HD 8 with Alexa 488 (left column). Co-localization of HD1/HD8 with Httex1 aggregates is shown in the merged image (co-localization observed in cells is indicated by white arrows). The “CTRL” rows show the non-transfected cells, which were treated with 5 times more peptide to confirm the localization was not due to aggregations of peptides or off-target binding occurring in the cell.
HD1 and HD8 were also tested to see if the synthetic peptide recognized Huntingtin fibrils from cells. In this assay, HD1 and HD8 are were labeled with the fluorescent dye, Alexa 488 and were incubated with fixed N2A cells (a mouse neuroblastoma cell line) that were expressing Huntingtin Exon 1 Q39 (mutant Huntingtin with 39 CAG repeats) fused to red fluorescent protein (tagRFP). In control experiments, with no Huntingtin exon 1 (Q39)-RFP fusion (Httex1 Q39) transfected, a diffuse signal is observed with HD1 and HD8 peptides (FIG. 11; Controls).

monomeric Huntingtin = test: Radioactive binding assay, monomeric Huntingtin; settings: radiolabeled peptide
Experimental: as §1
HD1 through HD4 were also tested for binding to monomeric Huntingtin (FIG. 5).
as §2

[7] = molecular target: unbundled fibrils of Huntingtin exon 1 (about 5% biotinylated), immobilized on beads (UniProt P42858); test: alanine scan of the constant region, radioactive binding assay
[8] = molecular target: unbundled fibrils of Huntingtin exon 1 (about 5% biotinylated), immobilized on beads (UniProt P42858); test: EPR, spin-labeled peptide titrated onto 15 µM fibrils
[9] = listed as HD8-SP10-HD1-fluorescein

- EPR central line amplitude upon addition of Htt fibrils (peptide-fibril complex formation) (Htt-fibrils [3]): decrease in central line amplitude
- binding to α-Synuclein fibrils (α-Synuclein fibrils): little to no binding
- binding of radiolabeled HD1 to Htt-fibrils on addition of synthetic peptide (Htt-fibrils [6]): reduced
- binding of radiolabeled HD8 to Htt-fibrils on addition of synthetic peptide (Htt-fibrils [6]): similarly reduced
- colocalization of Alexa 488 signal and RFP signal (Huntingtin Exon 1 Q39): significant colocalization
- binding to monomeric Huntingtin (monomeric Huntingtin): little to no binding
Molecule: MWQMMNGMSQ [HD8]
- binding to beads without target [4]: little to no binding to beads without target; also recorded: little to no binding; also recorded: low binding to beads without target
- binding to Htt-fibrils [5]: good binding to Htt-fibrils; also recorded: bind to Htt-fibrils; also recorded: show binding to Htt-fibrils
- inhibition of fibril formation (Huntingtin protein): significant inhibition of fibril formation

- stoichiometry of the complex (ratio at saturation) (ratio (printed 1:3)) [8]: 0.33
B2: spin-labeled synthetic HD1 (peptide)
peptide: MDWWPMWPSLC(spin label)
modifications: reading uncertain

- percent decrease in HD1 binding [7]: 20%
B4: HD1 G11A (peptide)
peptide: MDWWPMWPSLASGTSGSS
modifications: also: 35S-methionine

The remaining lines, values behind:

Molecule: HD8-Alexa488: HD8 conjugated with Alexa488 at its carboxyl terminus (MWQMMNGMSQ-Alexa488)
- labeling of retinal sections (Httex1 aggregates [1]; R6/1 (34 weeks) and zQ175KI (48 weeks) mice, 2 micromolar): Specific staining was observed in the ganglion cell layer of the retina in both mouse models
- labeling of retinal sections (Httex1 aggregates [1]; R6/1 (34 weeks) and zQ175KI (48 weeks) mice, 2 micromolar, listed as HD8 conjugated with Alexa488): observed mostly in the ganglion cell layer

Molecule: HD8-HD1-fluorescein: HD8-HD1 labeled with fluorescein at its carboxyl terminus (MWQMMNGMSQGSGTSGSSGSMDWWPMWPSL-fluorescein)
- labeling of retinal sections (Httex1 aggregates [1]; 34-week-old R6/1 mice, 0.1 micromolar): Robust signal from the peptide can be seen in the ganglion cell layer
- labeling of retinal sections (Httex1 aggregates [1]; 34-week-old R6/1 mice, 0.1 micromolar, listed as HD8-SP10-HD1-fluorescein): enhanced reactivity of Httex1 aggregates in all retinal layers
- labeling of brain sections (Httex1 aggregates [2]): abundant signal from R6/1 brain
- labeling of brain sections (Httex1 aggregates [2]; [9]): labels Httex1 aggregates in brain section
- labeling of Httex1Q72 aggregates (Httex1Q72 aggregates): strong labeling of the round cytoplasmic Httex1Q72 aggregates (arrows) and intranuclear aggregates
- labeling of Httex1Q72 aggregates (Httex1Q72 aggregates; [9]): bound Httex1Q72 aggregates

Molecule: MDWWPMWPSL [HD1]
- EPR central line amplitude upon addition of Htt fibrils (peptide-fibril complex formation) (Htt-fibrils [3]): decrease in central line amplitude
- binding to beads without target [4]: little to no binding to beads without target; also recorded: little to no binding
- binding to Htt-fibrils [5]: demonstrated binding to Htt-fibrils; also recorded: bind to Htt-fibrils; also recorded: show binding to Htt-fibrils
- binding to Htt-fibrils in the presence of serum ([5]; serum diluted 1:2, 1:5 or 1:10 with buffer (TBST)): serum partially inhibits the binding
- binding to α-Synuclein fibrils (α-Synuclein fibrils): little to no binding
- binding of radiolabeled HD1 to Htt-fibrils on addition of synthetic peptide (Htt-fibrils [6]): reduced
- binding of radiolabeled HD8 to Htt-fibrils on addition of synthetic peptide (Htt-fibrils [6]): similarly reduced
- inhibition of fibril formation (Huntingtin protein): significant inhibition of fibril formation
- colocalization of Alexa 488 signal and RFP signal (Huntingtin Exon 1 Q39): significant colocalization
- binding to monomeric Huntingtin (monomeric Huntingtin): little to no binding

B1: HD1 S12A (peptide)
peptide: MDWWPMWPSLGAGTSGSS
modifications: also: 35S-methionine
- percent decrease in HD1 binding [7]: 20%

B3: spin-labeled synthetic HD8 (peptide)
peptide: MWQMMNGMSQC(spin label)
modifications: reading uncertain
- stoichiometry of the complex (ratio) (ratio (printed 1:1)) [8]: 1

B5: HD1 G13A (peptide)
peptide: MDWWPMWPSLGSATSGSS
modifications: also: 35S-methionine
- percent decrease in HD1 binding [7]: 20%

— patent US20230322854A1, “HUNTINGTIN-RELATED PEPTIDE AGENTS AND USES THEREOF” (UNIVERSITY OF SOUTHERN CALIFORNIA, priority 2020, published 2023)
